Experiments:
Format in all cases: binding
[1] = molecular target: T1, CbuqPBP1 (Cyrtotrachelus buqueti, UniProt A0A1B3IIF7, F69A); experiment: competitive displacement of 1-NPN fluorescence
T1 construct: E. coli BL21(DE3), pET-28a(+); His-tag cut with enterokinase; about 400 bp insert, 16 kDa
T1 sequence (A0A1B3IIF7 17-143 F69A): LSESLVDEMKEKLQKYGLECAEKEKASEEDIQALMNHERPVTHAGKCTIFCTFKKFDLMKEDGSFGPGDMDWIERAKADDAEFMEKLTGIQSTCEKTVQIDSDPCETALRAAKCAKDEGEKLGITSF
From the text: (§1) competitive displacement of 1-NPN fluorescence on CbuqPBP1

[2] = molecular target: T1, CbuqPBP1; experiment: fluorescence titration, Scatchard plot
[3] = molecular target: T2, CbuqPBP1 (Cyrtotrachelus buqueti, UniProt A0A1B3IIF7, H53A); experiment: fluorescence titration, Scatchard plot
T2 construct: E. coli BL21(DE3), pET-28a(+); His-tag cut with enterokinase; about 400 bp insert, 16 kDa
T2 sequence (A0A1B3IIF7 17-143 H53A): T1 sequence (A0A1B3IIF7 17-143 F69A)

[4] = molecular target: T3, CbuqPBP1 (Cyrtotrachelus buqueti, UniProt A0A1B3IIF7); experiment: fluorescence titration, Scatchard plot
T3 construct: E. coli BL21(DE3), pET-28a(+); His-tag cut with enterokinase; about 400 bp insert, 16 kDa
T3 sequence (A0A1B3IIF7 17-143): T1 sequence (A0A1B3IIF7 17-143 F69A)

[5] = molecular target: T3, CbuqPBP1; experiment: competitive displacement of 1-NPN fluorescence; conditions: for IC50: read-out: IC50 (μM) / PBP1; for Ki: read-out: Ki (μM) / PBP1
From the text: as §1

Structure (SMILES) | IC50 [1] [µM] | Ki [1] [µM] | Kd [2] [µM] | Kd [3] [µM] | Kd [4] [µM] | IC50 [5] [µM] | Ki [5] [µM]
CCCCOC(=O)c1ccccc1C(=O)OCCCC [dibutyl phthalate] | 20 | 13.9 | – | – | – | – | –
c1ccc(Nc2cccc3ccccc23)cc1 [1-NPN] | – | – | 2.26 | 3.35 | 2.73 | – | –
C[C@@H]1CC[C@H]2C(C)(C)[C@H]3C[C@@]12CC[C@@]3(C)O [cedrol] | – | – | – | – | – | 30 | 21.9
c1ccc2scnc2c1 [benzothiazole] | 10.5 | 7.3 | – | – | – | 13.4 | 9.82
